Reference: patent US10328053B2 (Gilead Sciences, Inc., priority 2016, dated 2019)
pEC50: −log10 of the molar value.

How the values were obtained:
[1] = test system: HBV AD38 viral particles in HepG2 cell line overexpressing NTCP; test: HBV DNA Quantification Assay; type: cell-based; conditions: Hepatitis B virus, HepG2, 120 h, HBV-infected HepG2-NTCP cells, 5 days incubation, HBV DNA in culture supernatant (QuantiGene 2.0); geometric mean of a minimum of four determinations
Method: HBV DNA Quantification Assay
A HepG2 cell line overexpressing the HBV virus attachment receptor sodium-taurocholate cotransporting polypeptide (NTCP) was grown to confluency in DMEM growth medium, Dulbecco's Modified Eagle Medium without sodium pyruvate (Life Technologies, Rockville, Md.) supplemented with 10% FBS (Thermo Scientific, Waltham, Md.), 1% penicillin/streptomycin (Life Technologies, Rockville, Md.) and 2 mM L-glutamine (Life Technologies, Rockville, Md.) in T175 flasks. Cells were infected with HBV AD38 viral particles (Texcell, Frederick, USA) at 4000 genome equivalents per cell. After allowing viral infection to take place for 4 days, the infected cells were harvested from the flasks by trypsinization, washed twice with OptiMEM (Life Technologies, Rockville, Md.) and re-suspended in DMEM containing 2% FBS and 1% DMSO at a density of 0.25E6 cells/ml. Infected cells were seeded on 384 well collagen coated plates (Greiner, Austria) at a density of 20,000 cells/well containing serially diluted compounds of the present disclosure or DMSO (0.5%) in a final volume of 80 μl. The assay plates were incubated for a period of 5 days and the antiviral activity of the test compounds were assayed by detecting the presence of HBV DNA in the culture supernatant using the QuantiGene™ 2.0 nucleic acid quantification kit (Affymetrix, Santa Clara, Calif.).
The culture supernatant was harvested and treated with lysis buffer containing Proteinase K (Affymetrix, Santa Clara, Calif.). The supernatant was incubated with HBV viral DNA specific probes (Affymetrix, Santa Clara, Calif.) for 30 minutes at 55° C. This was followed by addition of 0.2M NaOH for 30 minutes at room temperature to denature the DNA, followed by addition of Neutralization buffer (Affymetrix, Santa Clara, Calif.). The resulting lysed and neutralized supernatant was then added to QuantiGene™ 2.0 384 well plates coated with capture oligonucleotides and incubated overnight at 55° C. The HBV specific probe set consists of Capture Extender oligonucleotides (CE's) and blocking probes. Following the overnight incubation, the wells were incubated for one hour sequentially with a Pre-Amplifier, Amplifier and Labeled probes conjugated to alkaline phosphatase with a wash step between incubations. After the final wash step, the alkaline phosphatase substrate (Luminol APS5) was added and the resulting luminescence signal was read in an EnVision Multilabel Plate Reader (PerkinElmer, Santa Clara, Calif.). The EC50 values were calculated from the fit of the dose—response curves to a four-parameter equation. All EC50 values represent geometric mean values of a minimum of four determinations.

[2] = Hepatic Stability Assay (in vitro half-life method); type: in vitro ADME; parameters: dose or concentration left out as unconfirmed; conditions: pooled cryopreserved hepatocytes, 37° C., 1×10^6 cells/mL, 0-6 hours, LC-MS/MS, 39.5 hours is the maximum detectable half life, read-out: t½ (converted)
How it was run: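 Pooled cryopreserved hepatocytes (1×10^6 cells/mL) incubated with compound at […] test concentration, 37° C.; samples at 0, 1, 3 and 6 h quantified by LC-MS/MS. Half-life from rate of compound disappearance, scaled to predicted hepatic clearance via well-stirred model.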

Row | Compound | pEC50 [1] | half-life [2]
1 | Cc1c(C(=O)C(=O)NC2(C(=O)N3CC4(C3)CS(=O)(=O)C4)CC(F)(F)C2)c2n(c1C(=O)Nc1ccc(F)c(Cl)c1)CCC2 [Example 13, N-(3-chloro-4-fluorophenyl)-7-(2-((1-(2,2-dioxido-2-thia-6-azaspiro[3.3]heptane-6-carbonyl)-3,3-difluorocyclobutyl)amino)-2-oxoacetyl)-6-methyl-2,3-dihydro-1H-pyrrolizine-5-carboxamide] | 6.60 | 16.4 h
2 | Cc1c(C(=O)C(=O)NC2(C(=O)N3CC(F)C3)CC(F)(F)C2)c2n(c1C(=O)Nc1ccc(F)c(Cl)c1)CCC2 [Example 14, N-(3-chloro-4-fluorophenyl)-7-(2-((3,3-difluoro-1-(3-fluoroazetidine-1-carbonyl)cyclobutyl)amino)-2-oxoacetyl)-6-methyl-2,3-dihydro-1H-pyrrolizine-5-carboxamide] | 8.06 | 2.1 h
3 | CNC(=O)C1(NC(=O)C(=O)c2c(C)c(C(=O)Nc3ccc(F)c(Cl)c3)n3c2C[C@@H](O)C3)CC(F)(F)C1 [Example 16, (R)—N-(3-chloro-4-fluorophenyl)-7-(2-((3,3-difluoro-1-(methylcarbamoyl)cyclobutyl)amino)-2-oxoacetyl)-2-hydroxy-6-methyl-2,3-dihydro-1H-pyrrolizine-5-carboxamide] | 6.34 | 11.8 h
4 | CNC(=O)C1(NC(=O)C(=O)c2c(C)c(C(=O)Nc3ccc(F)c(C#N)c3)n3c2CCC3C)CC(F)(F)C1 (centres unmarked) [Example 19, N-(3-cyano-4-fluorophenyl)-7-(2-((3,3-difluoro-1-(methylcarbamoyl)cyclobutyl)amino)-2-oxoacetyl)-3,6-dimethyl-2,3-dihydro-1H-pyrrolizine-5-carboxamide] | 6.78 | 18.3 h
5 | Cc1c(C(=O)C(=O)NC2(C)CS(=O)(=O)C2)c2n(c1C(=O)Nc1ccc(F)c(Cl)c1)CCC2 [Example 21, N-(3-chloro-4-fluorophenyl)-6-methyl-7-(2-((3-methyl-1,1-dioxidothietan-3-yl)amino)-2-oxoacetyl)-2,3-dihydro-1H-pyrrolizine-5-carboxamide] | 7.70 | 17.1 h
6 | Cc1c(C(=O)C(=O)NC2(C(=O)N3CC4(COC4)C3)CC(F)(F)C2)c2n(c1C(=O)Nc1ccc(F)c(Cl)c1)CCC2 [Example 27, N-(3-chloro-4-fluorophenyl)-7-(2-((3,3-difluoro-1-(2-oxa-6-azaspiro[3.3]heptane-6-carbonyl)cyclobutyl)amino)-2-oxoacetyl)-6-methyl-2,3-dihydro-1H-pyrrolizine-5-carboxamide] | 7.49 | 0.9 h
7 | Cc1c(C(=O)C(=O)NC2(C(=O)N3CC4(C3)CN(S(C)(=O)=O)C4)CC(F)(F)C2)c2n(c1C(=O)Nc1ccc(F)c(Cl)c1)CCC2 [Example 28, N-(3-chloro-4-fluorophenyl)-7-(2-((3,3-difluoro-1-(6-(methylsulfonyl)-2,6-diazaspiro[3.3]heptane-2-carbonyl)cyclobutyl)amino)-2-oxoacetyl)-6-methyl-2,3-dihydro-1H-pyrrolizine-5-carboxamide] | 6.95 | 11.8 h
8 | Cc1c(C(=O)C(=O)NC2(c3c[nH]nn3)CC(F)(F)C2)c2n(c1C(=O)Nc1ccc(F)c(Cl)c1)CCC2 [Example 29, N-(3-chloro-4-fluorophenyl)-7-(2-((3,3-difluoro-1-(1H-1,2,3-triazol-4-yl)cyclobutyl)amino)-2-oxoacetyl)-6-methyl-2,3-dihydro-1H-pyrrolizine-5-carboxamide] | 8.51 | 16.1 h
9 | Cc1c(C(=O)C(=O)NC2(c3c[nH]nn3)CC(F)(F)C2)c2n(c1C(=O)Nc1ccc(F)c(F)c1)CCC2 [Example 31, 7-(2-((3,3-difluoro-1-(1H-1,2,3-triazol-4-yl)cyclobutyl)amino)-2-oxoacetyl)-N-(3,4-difluorophenyl)-6-methyl-2,3-dihydro-1H-pyrrolizine-5-carboxamide] | 8.49 | 8.6 h
10 | Cc1c(C(=O)C(=O)NC2(c3c[nH]nn3)CC(F)(F)C2)c2n(c1C(=O)Nc1ccc(F)cc1)CCC2 [Example 32, 7-(2-((3,3-difluoro-1-(1H-1,2,3-triazol-4-yl)cyclobutyl)amino)-2-oxoacetyl)-N-(4-fluorophenyl)-6-methyl-2,3-dihydro-1H-pyrrolizine-5-carboxamide] | 8.07 | 8.8 h
11 | CNC(=O)C1(NC(=O)C(=O)c2c(C)c(C(=O)Nc3ccc(F)c(Cl)c3)n3c2[C@@H]2C[C@@H]2C3)CC(F)(F)C1 [Example 33, (1aS,6bR)—N-(3-chloro-4-fluorophenyl)-6-(2-((3,3-difluoro-1-(methylcarbamoyl)cyclobutyl)amino)-2-oxoacetyl)-5-methyl-1,1a,2,6b-tetrahydrocyclopropa[a]pyrrolizine-4-carboxamide] | 7.57 | 4.3 h
12 | CNC(=O)C1(NC(=O)C(=O)c2c(C)c(C(=O)Nc3ccc(F)c(Cl)c3)n3c2[C@H]2C[C@H]2C3)CC(F)(F)C1 [Example 34, (1aR,6bS)—N-(3-chloro-4-fluorophenyl)-6-(2-((3,3-difluoro-1-(methylcarbamoyl)cyclobutyl)amino)-2-oxoacetyl)-5-methyl-1,1a,2,6b-tetrahydrocyclopropa[a]pyrrolizine-4-carboxamide] | 6.69 | 18.1 h
13 | CNC(=O)C1(NC(=O)C(=O)c2c(C)c(C(=O)Nc3cc(F)c(F)c(F)c3)n3c2CCC3)CC(F)(F)C1 [Example 36, 7-(2-((3,3-difluoro-1-(methylcarbamoyl)cyclobutyl)amino)-2-oxoacetyl)-6-methyl-N-(3,4,5-trifluorophenyl)-2,3-dihydro-1H-pyrrolizine-5-carboxamide] | 7.62 | 26.5 h
14 | Cc1c(C(=O)C(=O)NC2(c3c[nH]nn3)CC(F)(F)C2)c2n(c1C(=O)Nc1ccc(F)c(C#N)c1)CCC2 [Example 37, N-(3-cyano-4-fluorophenyl)-7-(2-((3,3-difluoro-1-(1H-1,2,3-triazol-4-yl)cyclobutyl)amino)-2-oxoacetyl)-6-methyl-2,3-dihydro-1H-pyrrolizine-5-carboxamide] | 8.25 | 10.9 h
15 | CNC(=O)C1(NC(=O)C(=O)c2c(C)c(C(=O)Nc3cc(F)c(F)c(F)c3)n3c2C[C@H]2C[C@H]23)CC(F)(F)C1 [Example 38, (1aR,6aR)-5-(2-((3,3-difluoro-1-(methylcarbamoyl)cyclobutyl)amino)-2-oxoacetyl)-4-methyl-N-(3,4,5-trifluorophenyl)-1,1a,6,6a-tetrahydrocyclopropa[b]pyrrolizine-3-carboxamide] | 7.89 | 13.8 h
16 | Cc1c(C(=O)C(=O)NC2(c3c[nH]nn3)CC(F)(F)C2)c2n(c1C(=O)Nc1ccc(F)c(Cl)c1)[C@@H]1C[C@@H]1C2 [Example 39, (1aR,6aR)—N-(3-chloro-4-fluorophenyl)-5-(2-((3,3-difluoro-1-(1H-1,2,3-triazol-4-yl)cyclobutyl)amino)-2-oxoacetyl)-4-methyl-1,1a,6,6a-tetrahydrocyclopropa[b]pyrrolizine-3-carboxamide] | 8.68 | 4.2 h
